The values that follow come from publication PMC6076261, “A new quinoline-based chemical probe inhibits the autophagy-related cysteine protease ATG4B” (Scientific Reports, 2018).

By inhibition is commonly meant the percentage by which the read-out fell short of the control. A low value points to little suppression.

In series [1] the target is T1, caspase-3 (Homo sapiens, UniProt P42574).
T1 construct: purchased Abcam ab102491
T1 sequence (P42574 29-175 limits assumed): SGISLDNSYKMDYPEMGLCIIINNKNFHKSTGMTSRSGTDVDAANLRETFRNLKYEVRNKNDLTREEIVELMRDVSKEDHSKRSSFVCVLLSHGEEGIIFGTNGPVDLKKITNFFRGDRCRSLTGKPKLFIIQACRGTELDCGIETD
T1 sequence (P42574 176-277 limits assumed): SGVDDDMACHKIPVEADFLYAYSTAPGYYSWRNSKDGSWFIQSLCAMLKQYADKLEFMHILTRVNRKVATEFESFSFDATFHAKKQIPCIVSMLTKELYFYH
Kind of series: Caspase 3 assay (Abcam inhibitor kit). Type of series: biochemical. Here is the method:
Inhibition of caspase 3 was assayed using the Abcam Caspase 3 Inhibitor Drug Detection Kit (ab102491) according to the manufacturer’s protocol.

For series [2], the target named is T2, Cathepsin B (Homo sapiens, UniProt P07858).
T2 construct: Cathepsin B (human, recombinant, active - BioVision #7580-5); purchased BioVision #7580-5
Kind of series: Cathepsin B assay. Type of series: biochemical. The note with it: concentrations up to 60 µM. The method, then: The assay was performed essentially as described by Mendieta et al.[60] with Cathepsin B (human, recombinant, active - BioVision #7580-5), Substrate Z-Arg-Arg-AMC (Sigma C5429) and 1 µM Z-VAD-FMK (Adooq #A12373) as positive inhibition control.
The assay was maintained at 37 °C and monitored every 2 min for 16 min at 348 nm/440 nm (excitation/emission).

In series [3] the test system is SKBR3, MCF7, JIMT1 and MDA-MB-231 cells. The series is described as follows: Endogenous LC3B-II and p62 western blot in breast cancer cell lines. Type of series: cell-based. A general note: In western blotting, separated proteins are transferred to a membrane and probed.
Series [4] has as its system MDA-MB-231 cells. The series is described as follows: Autophagic flux and GABARAP western blot in MDA-MB-231 cells. Type of series: cell-based. The method, then: Corresponding mean LC3B-II/actin values were determined using densitometry analysis; error bars, SEM (n = 3). […] Autophagic flux assay using saturating (40 nM) concentrations of bafilomycin A1 (Baf A1) was applied for the assessment of LC3B-II accumulation. […] Corresponding mean LC3B-II/actin values were determined using densitometry analysis; n = 3; error bars, SEM; *p < 0.05. […] The control ATG4B-KO JIMT-1 cells showing the location of pro-LC3B are in lane 3. Samples were run on a 4–12% Bis-tris gradient gel. The banding pattern shown is representative of 3 independent experiments. […] Addition of bafilomycin A1 (Baf A1; 40 nM) or Wortmannin (1 µM) during the final 4 h of treatment had no effect. The GABARAP-II/actin values were determined using densitometry analysis; n = 3; error bars, SEM; *p < 0.05, Student’s t-test.

Series [5] concerns MDA-MB-231 cells stably expressing mRFP-EGFP-LC3B. Kind of series: mRFP-EGFP-LC3B puncta assay of starvation-induced autophagic flux. The note with it: 120 µM for 48 hours; starved conditions. Type of series: cell-based. The source says: Since GFP fluorescence is quenched in acid environments, but red fluorescence is preferentially retained, autolysosomes are indicated by red puncta whereas autophagosomes are indicated by yellow puncta, or the overlap of both red and green fluorescence. In starved control scramble-siRNA treated cells, abundant red puncta were detected as expected, indicating high levels of autophagic flux (Fig. 6a). […] To determine if LV-320 affects lysosomal degradation, we performed a DQ-BSA assay. DQ-Red BSA is a self-quenched fluorescent substrate that enters the cell through endocytosis and fluoresces upon lysosomal degradation.
For each experiment, media was replenished every day after initial plating and before treatment. At the end of the experiment the cells were fixed in 4% PFA for 20 minutes and then rinsed with PBS. Cells were then mounted using SlowFade Gold Antifade with DAPI (Invitrogen). […] For each treatment, the number of green, red and yellow (i.e. red/green overlap where applicable) puncta per cell were determined for at least 100 cells. […] LTR fluorescent intensity was measured by the mean gray value from the unadjusted images taken with the same microscope settings of the LTR channel and subtracting the mean background using Image J 1.45 s (https://imagej.nih.gov/ij/) with cells counted by DRAQ5 positive nuclei.

In series [6] the test system is SKBR3 cells. Kind of series: DQ-BSA assay for lysosomal activity. Type of series: cell-based. The note with it: CQ 20 µM; LV-320 75 and 100 µM. Here is the method:
A DQ-BSA assay was used to determine lysosomal degradative activity as described. […] All samples contained equal concentration of DMSO (0.5%) in regular growth media (Gibco DMEM + 10% FBS + 20 mM HEPES + 1X NEAA). […] Data were analyzed using FlowJo software.

Series [7] is described as follows: Pharmacokinetic assay, oral dosing. Type of series: in vivo, BL/6 mice. The method, then:
Blood samples (approximately 50 µL) were collected at predetermined intervals. Blood samples were placed into tubes containing sodium heparin and centrifuged at 10000 × g for 14 min to obtain the plasma samples.

The nature of series [8]: In vivo autophagy assay in GFP-LC3 mice. The conditions noted are these: female, GFP-LC3, mouse, 4 h after last dose, 100 or 200 mg/kg oral, 3 doses over two days. Here is the method:
(§1) GFP–LC3 mice were kindly provided by Dr. Mizushima (Tokyo Medical and Dental University, Japan)[67]. […]. The treatment was given by oral gavage. Four hours after the last dose the mice were terminated, blood samples were collected and the livers were harvested for the analysis.
(§2) After treatment, mouse liver tissues were collected and fixed with 4% paraformaldehyde dissolved in 0.1 M Na-phosphate buffer (pH 7.4) for 4 h, incubated overnight with 15% sucrose/PBS, and 30% sucrose/PBS for 4 h. Tissues were then embedded in OCT compound (Tissue-Tek) and stored at −80 °C. Liver OCT blocks were sectioned into 6 μm slides and countered stained with DAPI-containing mounting medium. Five randomly selected fields from each sample were examined (scorer was blinded) under 40x oil lens of the confocal microscope. Z-stack images were taken from each field with fixed settings at the laser power and exposure time for all samples. Green for GFP-LC3 and blue for nucleus (DAPI). The percentage of GFP-LC3 puncta positive cells from 5 fields were calculated for each sample; and 6 samples from each treatment condition were grouped for statistical analysis. Six animals per treatment group were used based on results in previous studies validating this method as a way to quantify GFP-LC3 puncta.

The test system of series [9] is GFP-LC3 mice. The series is described as follows: In vivo autophagy assay in GFP-LC3 mice. The conditions noted are these: 3 doses. The method, then: as §1, §2
The test system of series [10] is JIMT-1 cells. The series is described as follows: LC3B-II versus pro-LC3B western blot in JIMT-1 cells. The note with it: 75 µM; 24 h.
Procedure: To further confirm that the increase in LC3B-II represented a block in autophagy flux, the levels of endogenous LC3B-II were quantitated in the presence and absence of bafilomycin A1 (Baf A1).
Membranes were blocked in 2% milk and incubated in primary antibodies overnight at 4 °C. Primary antibodies were diluted in 2% milk and included: p62 (1:1000; Sigma, ref: P0067), LC3B (1:1000; Abcam, ref: ab48394), GABARAP (1:1000; Abcam, ref: ab109364), beta-actin (1:10000; Abcam, ref: ab6276), and vinculin (1:1000; Abcam, ref: ab129002). Membranes were then washed with 1X PBS-T (0.1%), incubated in HRP-conjugated secondary antibodies and detected using Bio-Rad Clarity Western ECL substrate and the electronic Bio-Rad ChemiDoc MP System. Densitometry was performed using Image Lab software (Bio-Rad), and the relative levels of LC3B-II were determined by first normalizing to the actin loading controls then to the DMSO controls.
Series [11] relates to osteosarcoma xenograft. Details: method as in PMID 25483883. The note with it: dosed daily at 100 mg/kg; cited from earlier work.
The test system of series [12] is LC3. Also noted: method as in PMID 25483883. The note with it: cited from earlier work.
For series [13], the target named is T3, ATG4B (Homo sapiens, UniProt Q9Y4P1).
T3 sequence (Q9Y4P1 1-393): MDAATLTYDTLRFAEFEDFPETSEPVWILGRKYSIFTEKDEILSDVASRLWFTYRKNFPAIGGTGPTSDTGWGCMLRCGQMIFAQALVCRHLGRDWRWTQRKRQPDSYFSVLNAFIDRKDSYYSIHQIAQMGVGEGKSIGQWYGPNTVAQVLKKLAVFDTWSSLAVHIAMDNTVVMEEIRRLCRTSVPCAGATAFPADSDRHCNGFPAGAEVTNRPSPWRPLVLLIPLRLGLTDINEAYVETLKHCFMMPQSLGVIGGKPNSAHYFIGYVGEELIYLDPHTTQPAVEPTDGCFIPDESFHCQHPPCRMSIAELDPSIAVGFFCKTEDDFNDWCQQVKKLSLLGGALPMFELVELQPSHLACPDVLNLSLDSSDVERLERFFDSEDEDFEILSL
Kind of series: Fluorimetric ATG4B enzymatic assay with fluorescent peptide substrate pim-FG-PABA-AMC. Type of series: biochemical. The conditions noted are these: up to 175 µM. Here is the method: 100 μL of immobilized TCEP in deionized water was diluted in 2.50 mL of buffer (50 mM Tris, 35 mM NaCl, pH = 8). The sample was centrifuged at 10,000 × g during 1 min. The supernatant was removed. This operation was done two more times. […] The solution was incubated on a carousel at 4 °C for 1 h. This solution was then diluted with 2.06 mL of buffer (50 mM Tris, 35 mM NaCl, 5 mM EDTA, pH 8), centrifuged at 10,000 × g during 1 min and the supernatant, containing the activated ATG4B (1 µM), was kept. A 96-well all-black plate was loaded where each well was charged with 55 µL of inhibitor at different concentrations (0 µM to 100 µM or 200 µM) in buffer/DMSO 41:3 (v/v) and 20 μL of enzyme or buffer were dispensed using a dispenser (Biotek). Plate was incubated for 30 min. A single read was done using excitation and emission wavelengths of 350/450 nm. 25 µL of peptide substrate (pim-FG-PABA-AMC)[52] (final assay concentration 100 µM) was dispensed using a dispenser (Biotek). Experiments were performed in triplicate except when it is mentioned. Fluorescent reads were performed using the Synergy 4 (Biotek) at 25 °C using excitation and emission wavelengths of 350/450 nm every 15 min for 2 h.

For series [14], the system named is MDA-MB-231 cells. Kind of series: Lysotracker Red fluorescence assay. Type of series: cell-based. The conditions noted are these: CQ 40 µM, LV-320 120 µM; 24 hours.
Procedure: For each experiment, media was replenished every day after initial plating and before treatment. At the end of the experiment the cells were fixed in 4% PFA for 20 minutes and then rinsed with PBS. Cells were then mounted using SlowFade Gold Antifade with DAPI (Invitrogen). For Lysotracker Red®(LTR) experiments, parental MDA-MB-231 cells were incubated with 50 µM of LTR for 5 min in the dark CO2 incubator, rinsed with PBS and fixed with 4% PFA for 20 min. Fixed cells were incubated in DRAQ5 (1:500) in PBS and 100 µg/mL RNaseA for 10 minutes at room temperature before being mounted with SlowFade Gold Antifade (Invitrogen). Leica TCS SP8 inverted confocal microscope with a Leica HC PL APO 63x/1.40 oil objective and LAS AF software (Leica) were used for imaging the cells. For each treatment, the number of green, red and yellow (i.e. red/green overlap where applicable) puncta per cell were determined for at least 100 cells. Puncta counting was performed using the OpenCV Python package; a contours discovery algorithm[66] was applied to images pre-processed by filtering colors and applying a Gaussian filter and adaptive threshold.

Where two headings read alike, the source gives them in different places.

Consider `O=C(O)CCSC(SCCc1ccccc1)c1ccc(/C=C/c2ccnc3cc(Cl)ccc23)cc1` (stereo not drawn) [LV-320], for which, in series [1], testing at 60 µM gave an inhibition of 6%. Besides, the “inhibition of cathepsin B” value in series [2] was 32%. Besides, in [3], the p62 level result is on record as “dose-dependent increase”. In series [3] (all four cell lines), the “concentration at which LC3B-II changes first detected” value lay in the range of 50 to 75 µM. In [3] (all four cell lines), the “endogenous LC3B-II levels” value is on record as “dose-dependent increase”. Also, the GABARAP levels result in series [4] (120 µM for 24 h) is recorded as “significant decrease”. For the same compound, the “autophagic flux (LC3B-II with and without Baf A1)” value in [4] (120 µM for 48 hours, Baf A1 40 nM) is reported as “blocks autophagic flux”. Besides, in [5], the “formation of red puncta (autolysosomes)” value is recorded as “significantly blocked”. In addition, in series [6], the “DQ-Red BSA fluorescence (lysosomal degradation)” value is reported as “no significant effect”. For the same compound, the “maximum concentration in plasma” value in series [7] (100 mg/kg oral) is on record as 210 ± 50 µM; in series [7] (200 mg/kg oral), 280 ± 20 µM. For the same compound, the Tmax in [7] (female, BL/6, mouse, plasma, 100 and 200 mg/kg oral, read-out: time of maximum concentration) is 1 h. Further, the “dose proportionality of blood levels” value in series [7] (oral 30, 100 and 200 mg/kg) is reported as “dose proportional up to 100 mg/kg but somewhat less so at 200 mg/kg”. For the same compound, the concentration at 4 h in series [8] (blood, read-out: terminal blood levels) was 169 ± 23 µM; in series [8] (liver, read-out: liver levels), 104 ± 26 µM. Besides, the “toxicity of treatment regimens” value in [9] (100 and 200 mg/kg oral) was “did not cause significant toxicity”. For the same compound, the “GFP-LC3 puncta in liver versus controls” value in series [9] (100 or 200 mg/kg oral) is “significantly greater accumulation”. For the same compound, in series [9] (100 or 200 mg/kg oral), the “LC3B-II protein in liver versus vehicle controls” value was “increased”. Moreover, the “LC3B-II versus pro-LC3B accumulation” value in series [10] is listed as “accumulation of LC3B-II but not pro-LC3B”.

Regarding `S=C(Nc1ccccn1)c1ccccn1` [NSC 185058, N-pyridin-2-ylpyridine-2-carbothioamide], the tumor growth result in series [11] is listed as “ability to inhibit tumor growth”. In addition, the “activation and lipidation of LC3 in cells” value in series [12] was “inhibiting activation and lipidation of LC3 in cells”.

For `CCN(CC)CCCC(C)Nc1ccnc2cc(Cl)ccc12` (stereo not drawn) [chloroquine, reference compound], in series [13], the “inhibition of activity of purified ATG4B” value is on record as “did not show significant inhibition”. Besides, in series [14], the “LTR fluorescence intensity relative to vehicle” value was “statistically significant decrease”. Besides, the “DQ-Red BSA fluorescence (lysosomal degradation)” value in series [6] is on record as “significantly reduced”.
